In patent US9078446B2, “Use of N-(tetrazol-4-yl)- or N-(triazol-3-yl)arylcarboxamides or their salts for controlling unwanted plants in areas of transgenic crop plants being tolerant to HPPD inhibitor herbicides” (BAYER INTELLECTUAL PROPERTY GMBH, priority 2011, dated 2015):

Tests used:
[1] = biological target: T1, Arabidopsis thaliana HPPD (AtHPPD) (Arabidopsis thaliana, UniProt P93836); test: Determination of HPPD activity in presence of HPPD inhibitor (percentage of inhibition); type: biochemical; settings: 5.0×10^−6M of compound, compared to activity in absence of compound
T1 construct: His6 (N); made in house; host or cells: E. coli K-12 BL21
T1 sequence (P93836 1-445): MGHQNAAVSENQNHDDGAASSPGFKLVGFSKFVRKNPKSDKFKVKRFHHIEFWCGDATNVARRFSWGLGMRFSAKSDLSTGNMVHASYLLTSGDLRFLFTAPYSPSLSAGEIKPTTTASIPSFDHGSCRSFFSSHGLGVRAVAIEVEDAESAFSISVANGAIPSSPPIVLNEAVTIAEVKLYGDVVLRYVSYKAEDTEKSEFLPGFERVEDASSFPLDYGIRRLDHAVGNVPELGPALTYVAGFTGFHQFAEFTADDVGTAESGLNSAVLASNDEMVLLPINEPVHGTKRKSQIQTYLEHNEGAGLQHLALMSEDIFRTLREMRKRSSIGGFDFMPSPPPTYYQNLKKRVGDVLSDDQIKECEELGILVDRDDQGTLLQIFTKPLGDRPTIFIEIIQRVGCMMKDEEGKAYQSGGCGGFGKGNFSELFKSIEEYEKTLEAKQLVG
Method: (§1) The HPPD activity was checked by the standard spectrophotmetric assay (method extensively described in WO 2009/144079)
(§2) Level of tolerance of HPPD proteins obtained from different organisms was determined according to the procedure as described in PCT/EP2010/070575.
(§3) Table E1: Determination of Percentage of Inhibition in Presence of 5.0×10^−6M of Compound “4-137” Compared to the Activity Measured in Absence of Compound No. “4-137” With HPPD Originated from Arabidopsis thaliana (AtHPPD), Mutated Pseudomonas fluorescens PfHPPD-G336W, Avena sativa (AvHPPD), FMP27 (Derived from Kordia algicida) and FMP37 (Derived from Blepharisma japonicum).

[2] = test system: FMP37 (HPPD derived from Blepharisma japonicum); test: as above; type: biochemical
Method: as §1, §2, §3

[3] = test system: FMP27 (HPPD derived from Kordia algicida); test: as above; type: biochemical
Method: as §1, §2, §3

[4] = test system: transgenic tobacco plants expressing HPPD from Blepharisma japonicum (FMP37); test: Symptoms due to herbicide application on transgenic tobacco plants (damage classes 0-3); type: in vivo; settings: 25 g Al/ha, one week after application
Excerpt: (§4) Genes coding for the selected HPPD were obtained from a member of the group of organisms consisting of Avena sativa, Pseudomonas fluorescens mutant G336W, Blepharisma japonicum and Kordia algicida and cloned into the binary vector pBin19 allowing the integration of DNA into the tobacco genome, under the control of the CaMV35S promoter. For the cloning procedures, see A2 above for Avena sativa, see B2 above for Pseudomonas fluorescens, mutant G336W, see PCT/EP2010/070567 (published as WO 2011/076882, Example 5; for Blepharisma japonicum (FMP37) and see PCT/EP2010/070575, Example 5 for Kordia algicida (FMP27). Between the sequence corresponding to the promoter and the sequence coding for the HPPD a DNA sequence coding for a transit peptide to the chloroplast was inserted, in order to add at the N-terminal extremity of the protein a target signal to allow the localization of the HPPD protein into the plant chloroplast.
(§5) Seeds harvested from TO transformants will be put on standard soil for germination. Three weeks later plantlets (T1) will be transferred to single pots and grown under standard cultivation conditions (PCT/EP2010/070575, published as WO 2011/076889). Two weeks later, plants were sprayed with several N-(tetrazol-4-yl)- or N-(triazol-3-yl)arylcarboxamides as defined above.
(§6) Tables F1 to F5: Evaluation of the Symptoms Observed Due to the Application of the Herbicides on Transgenic Tobacco Plants, Expressing the Mutant Pseudomonas fluorescens HPPD G336W, the Avena HPPD (AvHPPD), the HPPD from Kordia algicida FMP27 or the HPPD from Blepharisma japonicum (FMP37), Compared to Non-Tranformed Tobacco Plants (“Wt”).
(§7) The herbicides (with “g Al/ha” meaning “g active ingredient/ha”) were applied on 8 to 10 plants originated from 1 to 3 independent transgenic events per transgene.
(§8) The symptoms were evaluated and classified as following: • 3=Very strong damage • 2=Strong damage • 1=Light and transient damage • 0=No damage

[5] = test system: transgenic tobacco plants expressing mutant Pseudomonas fluorescens HPPD G336W (PfHPPD-G336W); test: as above; type: in vivo; settings: PfHPPD-G336W line 646; 25 g Al/ha; one week after application
Excerpt: as §4, §5, §6, §7, §8

[6] = test system: transgenic tobacco plants expressing Avena HPPD (AvHPPD); test: as above; type: in vivo; settings: 25 g Al/ha, one week after application
Excerpt: as §4, §5, §6, §7, §8

[7] = test system: transgenic tobacco plants expressing HPPD from Kordia algicida FMP27; test: as above; type: in vivo; settings: 25 g Al/ha, one week after application
Excerpt: as §4, §5, §6, §7, §8

`Cc1c(C(=O)Nc2nnnn2C)ccc(C(F)(F)F)c1S(C)(=O)=O` [Compound 4-137] was tested, and the Inhibition % [1] was 100%, the Inhibition % ([2]; 5.0×10^−6M of compound, compared to activity in absence of compound, FMP37) was 82% and the “tolerance/sensitivity of the HPPD to the inhibitor compared to Arabidopsis thaliana HPPD” value ([2]; FMP37 versus AtHPPD, identical experimental conditions) was “less sensitive”. For the same compound, the Inhibition % ([3]; 5.0×10^−6M of compound, compared to activity in absence of compound, FMP27) was 90%, the “tolerance/sensitivity of the HPPD to the inhibitor compared to Arabidopsis thaliana HPPD” value ([3]; FMP27 versus AtHPPD, identical experimental conditions) was “less sensitive” and the “number of plants with Damage 0 (No damage)” value (shortened to “number … (No damage)”) ([4]; FMP37 line 749) was 8. The “number of plants with Damage 1 (Light and transient damage)” value (“number … (Light and transient damage)” for short) ([4]; FMP37 line 749) was 2, the “number of plants with Damage 2 (Strong damage)” value (“number … (Strong damage)” for short) ([4]; FMP37 line 749) was 0 and the “number of plants with Damage 3 (Very strong damage)” value (“number … (Very strong damage)” below) ([4]; FMP37 line 749) was 0. For the same compound, the “number … (No damage)” value ([4]; FMP37 line 754) was 0, the “number … (Light and transient damage)” value ([4]; FMP37 line 754) was 1 and the “number … (Strong damage)” value ([4]; FMP37 line 754) was 1. The “number … (Very strong damage)” value ([4]; FMP37 line 754) was 8, the “number … (No damage)” value ([4]; FMP37 line 795) was 2 and the “number … (Light and transient damage)” value ([4]; FMP37 line 795) was 0. For the same compound, the “number … (Strong damage)” value ([4]; FMP37 line 795) was 2, the “number … (Very strong damage)” value ([4]; FMP37 line 795) was 6 and the “number … (No damage)” value [5] was 5. For the same compound, the “number … (Light and transient damage)” value [5] was 2, the “number … (Strong damage)” value [5] was 0 and the “number … (Very strong damage)” value [5] was 3. The “number … (No damage)” value ([6]; AvHPPD line 656) was 3, the “number … (Light and transient damage)” value ([6]; AvHPPD line 656) was 1 and the “number … (Strong damage)” value ([6]; AvHPPD line 656) was 1. For the same compound, the “number … (Very strong damage)” value ([6]; AvHPPD line 656) was 5, the “number … (No damage)” value ([6]; AvHPPD line 659) was 3 and the “number … (Light and transient damage)” value ([6]; AvHPPD line 659) was 3. The “number … (Strong damage)” value ([6]; AvHPPD line 659) was 0, the “number … (Very strong damage)” value ([6]; AvHPPD line 659) was 4 and the “number … (No damage)” value ([6]; AvHPPD line 699) was 1. The “number … (Light and transient damage)” value ([6]; AvHPPD line 699) was 2, the “number … (Strong damage)” value ([6]; AvHPPD line 699) was 0 and the “number … (Very strong damage)” value ([6]; AvHPPD line 699) was 7. The “number … (No damage)” value ([7]; FMP27 line 733) was 4, the “number … (Light and transient damage)” value ([7]; FMP27 line 733) was 0 and the “number … (Strong damage)” value ([7]; FMP27 line 733) was 1. The “number … (Very strong damage)” value ([7]; FMP27 line 733) was 5, the “number … (No damage)” value ([7]; FMP27 line 734) was 5 and the “number … (Light and transient damage)” value ([7]; FMP27 line 734) was 2. For the same compound, the “number … (Strong damage)” value ([7]; FMP27 line 734) was 0, the “number … (Very strong damage)” value ([7]; FMP27 line 734) was 3 and the “number … (No damage)” value ([7]; FMP27 line 735) was 3. For the same compound, the “number … (Light and transient damage)” value ([7]; FMP27 line 735) was 0, the “number … (Strong damage)” value ([7]; FMP27 line 735) was 4 and the “number … (Very strong damage)” value ([7]; FMP27 line 735) was 3.
